Measurements taken from patent US20120301562A1, “COMPOSITION FOR IMPROVING BLOOD CIRCULATION, CONTAINING EXTRACT OF LINDERA OBTUSILOBA AS ACTIVE INGREDIENT” (priority 2009, published 2012).

What was measured:
[1] = tested on: platelet aggregation induced by ADP; test: Inhibition of rat washed platelet aggregation induced by ADP (turbidimetric); type: cell-based; conditions: ADP 22 μM, rat washed platelets
Experimental: (§1) Rats were paralyzed with ethyl ether and blood samples were collected from abdominal aorta with a syringe containing anticoagulant 0.15 M sodium citrate whose volume ratio is 1:9 compared with blood sample volume. Blood samples were centrifuged at 200×g for 10 min to obtain platelet rich plasma (PRP) as supernatant. PRP was centrifuged at 800×g for 15 min, and precipitated platelets were washed two times with a washing buffer (137 mM NaCl, 2.9 mM KCl, 1 mM MgCl2, 5 mM glucose, 12 mM NaHCO3, 0.34 mM Na2HPO4, 1 mM EDTA, 20 mM HEPES, 0.25% BSA, pH 7.4) and suspended in a suspension buffer (suspension buffer. 137 mM NaCl, 2.9 mM KCl, 1 mM MgCl2, 5 mM glucose, 12 mM NaHCO3, 0.34 mM Na2HPO4, 20 mM HEPES, 0.25% BSA, pH 7.4) to prepare washed platelets. Platelet numbers of washed platelets used in measurement of inhibitory effect on platelet aggregation were counted with a cell counter (cell counter. Hema-vet HV950FS, Drew Scientific, USA), and washed platelets were diluted with a buffer solution so as to adjust the platelet count to 3×10^8 platelets/mL. Since platelets are aggregated at low temperatures, the foregoing experiment was carried out at room temperature.
(§2) Inhibitory effect on rat platelet aggregation was measured by turbidimetric method using an aggrerometer (Chrono-Log Co., Ltd., Havertown, Pa., USA). Washed platelets were incubated at 37° C. for 3 min and treated with various concentrations of extracts. After 2 min, platelet aggregation was induced by a platelet aggregation-inducing substance, ADP (22 μM) or collagen (20 μg/mL). Platelet aggregation was measured for 10 min and the inhibition extent of platelet aggregation was calculated. Platelets which were not treated with extracts were used for control, and the inhibition extent of platelet aggregation was calculated using the following equation.
(§3) The inhibition extent of platelet aggregation=[(A−B)/A]×100 [Equation 1] • A: aggregation % of control • B: aggregation % of extract-treated platelets

[2] = tested on: platelet aggregation induced by collagen; test: Inhibition of rat washed platelet aggregation induced by collagen (turbidimetric); type: cell-based; conditions: collagen 20 μg/mL, rat washed platelets
Experimental: as §1, §2, §3

[3] = tested on: thromboembolism; test: Inhibitory effect on thromboembolism induced by collagen and epinephrine injected into the tail vein; type: in vivo, mouse; conditions: oral administration 1 h prior to collagen + epinephrine injection, mice
Experimental: Experimental thrombosis induction in animals was based on Diminno's method. When a platelet aggregation inducer is injected into a tail vein of a mouse, a large amount of thrombus formation is induced in the pulmonary artery to kill the animal, and by observing whether this can be recovered or not, the inhibition extent of thrombus formation is measured. A mixture solution of collagen (Chrono-Log, […]) and epinephrine (Chrono-Log, 2 μg/mouse) was prepared to be contained in 200 μL of physiological saline as a platelet aggregation inducer and injected into the tail vein of mice. Extract suspension or physiological saline was orally administered in proportion to body weight at 1 h prior to injection of the platelet aggregation inducer to investigate antithrombotic effect. The antithrombotic effect was calculated as percentage of the number of experimental animals protected from hind leg paralysis or death induced by the injection of platelet aggregation inducer. Antithrombotic effect of extracts was determined by observing whether recovery from the persistence of paralysis for 15 min or longer after injection, death, or paralysis occurred or not. The survival rate (%) of each group was calculated with the following equation.
The survival rate (%)=(D/C)×100 [Equation 2] • C: the number of animals to which collagen was precisely injected. • D: the number of survived animals among animals to which collagen was precisely injected.

## CC(=O)Oc1ccccc1C(=O)O [Aspirin]
[1]; final concentration 0.1 mg/mL
  inhibition at 100 µg/mL: 15.9%
[1]; final concentration 1 mg/mL
  inhibition at 1000 µg/mL: 52.3%
[1]; final concentration 10 mg/mL
  inhibition at 10000 µg/mL: 93.2%
[2]; final concentration 0.1 mg/mL
  inhibition at 100 µg/mL: 18.5%
[2]; final concentration 1 mg/mL
  inhibition at 1000 µg/mL: 51.9%
[2]; final concentration 10 mg/mL
  inhibition at 10000 µg/mL: 94.4%
[3]; 1st experiment
  1st (survived animals/injected animals, D/C): 15/19
[3]; 2nd experiment
  2nd (survived animals/injected animals, D/C): 9/20
[3]; 3rd experiment
  3rd (survived animals/injected animals, D/C): 9/19
[3]; (D/C)×100
  Survival rate (%): 56%
[3]; sum of three experiments
  Sum (D/C): 33/58
